What was measured:
xanthine oxidase enzyme = assay: Xanthine oxidase enzyme activity in tissue, mice with TNBS-induced colitis; type: in vivo; conditions: gastric and colon tissue, 1.11 mmol/kg, FIGS. 14a/14b
Experimental: (§1) Colonic inflammation was induced by intracolonic administration of TNBS (2,4,6-trinitrobenzenesulfonic acid) (40 mg/kg in 0.25 ml of 25% aqueous ethanol) through an 8-cm-long soft plastic catheter under transient diethylether anesthesia. In the sham-operated groups, only the vehicle for TNBS was administered. The animals were deprived of food, but not water, for 12 h before the enemas.
The XOR activity was determined in the ultrafiltered, concentrated supernatant by fluorometric kinetic assay based on the conversion of pterine to isoxanthopterine in the presence (total XOR) or absence (xanthine oxidase activity) of the electron acceptor methylene blue.
(§2) The above-described clinical studies were repeated with animals having colitis which was induced as described above. […] Two days after the enema the effects of the treatment were determined by measurement of body weight, blood gas analysis and biopsy. […] Surgery was performed to allow registration of the hemodynamic parameters at 1 h intervals for 6 h (cardiac output [CO] data were measured only at the end of the experiments). […] In addition, fluorescence confocal endomicroscopy was performed to examine the microvasculature and morphologic changes of the mucosa of the distal colon, and full-thickness tissue samples and venous blood samples were taken to determine the biochemical changes in the colon and plasma.

myeloperoxidase (MPO) = assay: Tissue myeloperoxidase activity, rats with gastric injury without inflammation; type: in vivo; conditions: gastric and colon tissue, one day after 1.11 mmol/kg, vs control group H, FIGS. 23a/23b
Experimental: Colon biopsies kept on ice were homogenized in phosphate buffer (pH 7.4) containing 50 mM Tris-HCl (Reanal, Budapest, Hungary), 0.1 mM EDTA, 0.5 mM dithiothreitol, 1 mM phenylmethylsulfonyl fluoride, 10 μg/ml soybean trypsin inhibitor, and 10 μg/ml leupeptin (Sigma Aldrich GmbH, Munich, Germany). The homogenate was centrifuged at 4° C. for 20 minutes at 24,000 g, and the supernatant was loaded into centrifugal tubes (Amicon Centricon-100; 100,000-molecular-weight cutoff ultrafilter, Millipore Corporation, Bedford, Mass.). The activity of myeloperoxidase (MPO) was measured on the pellet of the homogenate.
The activity of MPO as a marker of tissue leukocyte infiltration was measured on the pellet of the homogenate. Briefly, the pellet was resuspended in K3PO4 buffer (0.05 M; pH 6.0) containing 0.5% hexa-1,6-bis-decyltriethylammonium bromide. After three repeated freeze-thaw procedures, the material was centrifuged at 4° C. for 20 minutes at 24,000 g, and the supernatant was used for MPO determination. […] The reaction led to the hydrogen peroxide-dependent oxidation of tetramethylbenzidine, which could be detected spectrophotometrically at 450 nm (UV-1601 spetrophotometer; Shimadzu, Kyoto, Japan). Myeloperoxidase activities were measured at 37° C.; the reaction was stopped after 5 minutes by the addition of 0.2 ml of H2SO4 (2 M), and the resulting data were referred to the protein content. […]

[1] = Body weight, rats with TNBS-induced colitis; type: in vivo; conditions: two days after enema, one day after 1.11 mmol/kg, FIG. 27
Experimental: as §1, §2

nitrite/nitrate (NOx) = assay: Nitrite/nitrate level, colitis animals, comparison with GM-20 (FIG. 35); type: in vivo, rats; conditions: 1.11 mmol/kg body weight, vs sham control group P
Experimental: The levels of plasma nitrite/nitrate (NOx), stable end products of NO were measured by the Griess reaction. This assay depends on the reduction of nitrate to nitrite, which is then converted into a colored azo dye compound that is detected spectrophotometrically at 540 nm.
The above-described clinical studies were repeated with animals having colitis which was induced as described above. 20 animals (rats) were randomly divided into four groups, wherein group L served as sham-operated control, having no colitis, group M served as second control having colitis but receiving no further treatment, group N having colitis and being treated with 1.11 mmol/kg body weight of ASS and group O having colitis and being treated with 1.11 mmol/kg of the compound according to the invention. One day after the animals received the enema with TNBS (40 mg/kg i.c.), wherein the animals of group L only received the respective solvent, the animals of group N and O were treated with ASS and the compound according to the invention, respectively. The other animals only received the respective solvent again. Two days after the enema the effects of the treatment were determined by measurement of body weight, blood gas analysis and biopsy. […] Surgery was performed to allow registration of the hemodynamic parameters at 1 h intervals for 6 h (cardiac output [CO] data were measured only at the end of the experiments). […] In addition, fluorescence confocal endomicroscopy was performed to examine the microvasculature and morphologic changes of the mucosa of the distal colon, and full-thickness tissue samples and venous blood samples were taken to determine the biochemical changes in the colon and plasma.
The tests were conducted according to the above described protocol. […] Comparative compound GM-20 is described in the state of the art as being suitable for the therapeutic treatment pathologic disorders characterized by degranulation of the mast cells caused by immunogenic hyperstimulation (see U.S. Pat. No. 5,506,224) The nitrite/nitrate level was measured as described above.

| Structure (SMILES) | activity of xanthine oxidase enzyme (xanthine oxidase enzyme) | myeloperoxidase (MPO) activity (myeloperoxidase (MPO)) | loss of body weight [1] | nitrite/nitrate level (nitrite/nitrate (NOx)) |
| --- | --- | --- | --- | --- |
| CC(=O)Oc1ccccc1C(=O)O [ASS, acetylsalicylic acid, reference compound] | only a slight decrease in activity | increased | severe loss in body weight | increased nitrite/nitrate level |
| CC(=O)Oc1ccccc1C(=O)NC(CO)(CO)CO [compound according to the invention] | enzyme activity comparable to that of healthy animals | does not further enhance the inflammatory processes | No weight loss | did not lead to an increase in the nitrite/nitrate level |

— US20160326098A1, “Pharmaceutically Active Compound for Use as Anti-inflammatory Agent” (Pax Forschung GmbH, priority 2013, published 2016)
